Reference: patent publication US11034672B1, “Tyrosine kinase inhibitor compositions, methods of making and methods of use” (Black Diamond Therapeutics, Inc., priority 2018, dated 2021)
pIC50: −log10 of the molar value.

Experiments:
Type in all cases: cell-based
EGFR WT [1] = target: T1, EGFR WT (Homo sapiens, UniProt P00533); experiment: Activity for inhibiting EGFR (Table A), EGFR WT; conditions: read-out: EGFR WT, potency code (IC50)
EGFR V3 [2] = target: T2, EGFR V3 (Homo sapiens, UniProt P00533, DELINS30-297G); experiment: Activity for inhibiting EGFR (Table A), EGFR V3 (EGFR-Viii); conditions: read-out: EGFR V3, potency code (IC50)
T2 construct: expressed in transfected cells; host or cells: BaF3 (murine pro-B), retroviral pMXs-IRES-Blasticidin

EGFR NPH [3] = target: T3, EGFR NPH (Homo sapiens, UniProt P00533, DUP771-773); experiment: Activity for inhibiting EGFR (Table A), EGFR NPH; conditions: read-out: EGFR NPH, potency code (IC50)
T3 construct: expressed in transfected cells; host or cells: BaF3 (murine pro-B), retroviral pMXs-IRES-Blasticidin

EGFR SVD [4] = target: T4, EGFR SVD (Homo sapiens, UniProt P00533, DUP768-770); experiment: Activity for inhibiting EGFR (Table A), EGFR SVD; conditions: read-out: EGFR SVD, potency code (IC50)
T4 construct: expressed in transfected cells; host or cells: BaF3 (murine pro-B), retroviral pMXs-IRES-Blasticidin

HER2 WT [5] = target: T5, HER2 WT (Homo sapiens, UniProt P04626); experiment: Activity for inhibiting HER2 (Table B), HER2 WT
HER2 S310F [6] = target: T6, HER2 S310F (Homo sapiens, UniProt P04626, S310F); experiment: Activity for inhibiting HER2 (Table B), HER2 S310F; conditions: read-out: HER2 S310F, potency code (IC50)
T6 construct: expressed in transfected cells; host or cells: BaF3 (murine pro-B)
Protocol: (§1) EC50 values were determined with the same application.

HER2 YVMA [7] = target: T7, HER2 YVMA (Homo sapiens, UniProt P04626, INS775YVMA); experiment: Activity for inhibiting HER2 (Table B), HER2 YVMA; conditions: read-out: HER2 YVMA, potency code (IC50)
T7 construct: expressed in transfected cells; host or cells: BaF3 (murine pro-B)
Protocol: as §1

EGFR WT [8] = target: T1, EGFR WT; experiment: BaF3 cell proliferation assay, EGFR WT (Table A); conditions: potency code, 3 days, CellTiterGlo, read-out: EGFR WT (Activity for Inhibiting EGFR)
Summary of the method: (§2)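 BaF3 cells were infected twice with retrovirus carrying the mutant (pMXs-IRES-Blasticidin, 8 μg/ml polybrene, spinoculation), then selected in 10 μg/ml blasticidin for one week. Resistant pools were then grown without IL-3 to select for IL-3-independent growth. EC50 values were derived from proliferation.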

EGFR V3 [9] = target: T2, EGFR V3; experiment: BaF3 cell proliferation assay, EGFR V3 (Table A); conditions: potency code, 3 days, CellTiterGlo, read-out: EGFR V3 (Activity for Inhibiting EGFR)
Summary of the method: as §2

EGFR NPH [10] = target: T3, EGFR NPH; experiment: BaF3 cell proliferation assay, EGFR NPH (Table A); conditions: potency code, 3 days, CellTiterGlo, read-out: EGFR NPH (Activity for Inhibiting EGFR)
Protocol: (§3) Retroviral Production: EGFR mutants were subcloned into pMXs-IRES-Blasticidin (RTV-016, Cell Biolabs, San Diego, Calif.). Retroviral expression vector retrovirus was produced by transient transfection of HEK 293T cells with the retroviral EGFR mutant expression vector pMXs-IRES-Blasticidin (RTV-016, Cell Biolabs), pCMV-Gag-Pol vector and pCMV-VSV-G-Envelope vector. Briefly, HEK 293T/17 cells were plated in 100 mm collagen coated plate (354450, Corning Life Sciences, Tewksbury, Mass.) (4×10^5 per plate) and incubated overnight. The next day, retroviral plasmids (3 μg of EGFR mutant, 1.0 μg of pCMV-Gag-Pol and 0.5 μg pCMV-VSV-G) were mixed in 500 μl of Optimem (31985, Life Technologies). The mixture was incubated at room temperature for 5 min and then added to Optimem containing transfection reagent Lipofectamine (11668, Invitrogen) and incubated for 20 minutes. Mixture was then added dropwise to HEK 293T cells. The next day the medium was replaced with fresh culture medium and retrovirus was harvested @ 24 and 48 hrs.
(§4) Generation of EGFR mutant stable cell lines: BaF3 cells (1.5E5 cells) were infected with 1 ml of viral supernatant supplemented with 8 μg/ml polybrene by centrifuging for 30 min at 1000 rpm. Cells were placed in a 37° C. incubator overnight. Cells were then spun for 5 minutes to pellet the cells. Supernatant was removed and cells re-infected a fresh 1 ml of viral supernatant supplemented with 8 μg/ml polybrene by centrifuging for 30 min at 1000 rpm. Cells were placed in 37° C. incubator overnight. […] After 48 hours cells were selected for retroviral infection in 10 μg/ml Blasticidin for one week. Blasticidin resistant populations were washed twice in phosphate buffered saline before plating in media lacking IL-3 to select for IL-3 independent growth.
as §1

EGFR SVD [11] = target: T4, EGFR SVD; experiment: BaF3 cell proliferation assay, EGFR SVD (Table A); conditions: potency code, 3 days, CellTiterGlo, read-out: EGFR SVD (Activity for Inhibiting EGFR)
Protocol: as §3, §4, §1

HER2 WT [12] = target: T5, HER2 WT; experiment: BaF3 cell proliferation assay, HER2 WT (Table B); conditions: potency code, 3 days, CellTiterGlo, read-out: HER2 WT (Activity for Inhibiting HER2)
HER2 S310F [13] = target: T6, HER2 S310F; experiment: BaF3 cell proliferation assay, HER2 S310F (Table B); conditions: potency code, 3 days, CellTiterGlo, read-out: HER2 S310F (Activity for Inhibiting HER2)
HER2 YVMA [14] = target: T7, HER2 YVMA; experiment: BaF3 cell proliferation assay, HER2 YVMA (Table B); conditions: potency code, 3 days, CellTiterGlo, read-out: HER2 YVMA (Activity for Inhibiting HER2)
[15] = Table B, read-out: HER2 WT, potency code (IC50)
[16] = text lists of compounds, read-out: IC50 value for inhibiting wild-type HER2

T5 sequence (P04626 23-1255): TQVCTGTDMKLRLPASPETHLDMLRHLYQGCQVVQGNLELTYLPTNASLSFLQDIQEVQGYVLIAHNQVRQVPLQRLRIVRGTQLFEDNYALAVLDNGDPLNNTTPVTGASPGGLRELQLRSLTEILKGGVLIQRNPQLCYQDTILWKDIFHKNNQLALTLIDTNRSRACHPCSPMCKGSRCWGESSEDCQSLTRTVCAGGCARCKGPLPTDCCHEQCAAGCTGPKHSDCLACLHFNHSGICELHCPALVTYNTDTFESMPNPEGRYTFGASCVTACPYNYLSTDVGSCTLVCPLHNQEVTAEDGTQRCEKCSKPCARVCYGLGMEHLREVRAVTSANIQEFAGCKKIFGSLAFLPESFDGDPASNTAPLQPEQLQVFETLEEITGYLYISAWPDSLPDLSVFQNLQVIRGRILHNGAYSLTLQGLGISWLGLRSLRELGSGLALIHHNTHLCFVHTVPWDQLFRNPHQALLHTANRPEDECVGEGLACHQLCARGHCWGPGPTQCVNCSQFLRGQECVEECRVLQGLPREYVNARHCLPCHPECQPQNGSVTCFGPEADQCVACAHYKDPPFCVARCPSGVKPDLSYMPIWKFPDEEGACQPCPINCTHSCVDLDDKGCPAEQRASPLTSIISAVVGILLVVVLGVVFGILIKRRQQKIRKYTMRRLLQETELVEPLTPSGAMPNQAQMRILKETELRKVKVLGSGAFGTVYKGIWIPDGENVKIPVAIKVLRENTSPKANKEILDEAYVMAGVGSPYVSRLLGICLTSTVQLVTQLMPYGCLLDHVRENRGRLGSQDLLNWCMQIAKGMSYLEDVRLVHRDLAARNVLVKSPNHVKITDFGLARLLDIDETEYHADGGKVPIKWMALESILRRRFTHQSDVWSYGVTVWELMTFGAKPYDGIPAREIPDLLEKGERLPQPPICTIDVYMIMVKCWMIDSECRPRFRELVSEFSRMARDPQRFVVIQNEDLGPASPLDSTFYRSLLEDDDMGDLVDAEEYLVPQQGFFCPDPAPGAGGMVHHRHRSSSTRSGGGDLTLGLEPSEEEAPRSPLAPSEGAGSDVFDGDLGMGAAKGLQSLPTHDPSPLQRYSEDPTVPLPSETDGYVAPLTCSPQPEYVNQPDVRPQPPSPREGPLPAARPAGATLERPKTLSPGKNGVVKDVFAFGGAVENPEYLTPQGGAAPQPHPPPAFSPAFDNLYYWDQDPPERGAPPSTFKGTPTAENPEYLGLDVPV
T4 sequence (P00533 with tags, fused parts or gaps DUP768-770): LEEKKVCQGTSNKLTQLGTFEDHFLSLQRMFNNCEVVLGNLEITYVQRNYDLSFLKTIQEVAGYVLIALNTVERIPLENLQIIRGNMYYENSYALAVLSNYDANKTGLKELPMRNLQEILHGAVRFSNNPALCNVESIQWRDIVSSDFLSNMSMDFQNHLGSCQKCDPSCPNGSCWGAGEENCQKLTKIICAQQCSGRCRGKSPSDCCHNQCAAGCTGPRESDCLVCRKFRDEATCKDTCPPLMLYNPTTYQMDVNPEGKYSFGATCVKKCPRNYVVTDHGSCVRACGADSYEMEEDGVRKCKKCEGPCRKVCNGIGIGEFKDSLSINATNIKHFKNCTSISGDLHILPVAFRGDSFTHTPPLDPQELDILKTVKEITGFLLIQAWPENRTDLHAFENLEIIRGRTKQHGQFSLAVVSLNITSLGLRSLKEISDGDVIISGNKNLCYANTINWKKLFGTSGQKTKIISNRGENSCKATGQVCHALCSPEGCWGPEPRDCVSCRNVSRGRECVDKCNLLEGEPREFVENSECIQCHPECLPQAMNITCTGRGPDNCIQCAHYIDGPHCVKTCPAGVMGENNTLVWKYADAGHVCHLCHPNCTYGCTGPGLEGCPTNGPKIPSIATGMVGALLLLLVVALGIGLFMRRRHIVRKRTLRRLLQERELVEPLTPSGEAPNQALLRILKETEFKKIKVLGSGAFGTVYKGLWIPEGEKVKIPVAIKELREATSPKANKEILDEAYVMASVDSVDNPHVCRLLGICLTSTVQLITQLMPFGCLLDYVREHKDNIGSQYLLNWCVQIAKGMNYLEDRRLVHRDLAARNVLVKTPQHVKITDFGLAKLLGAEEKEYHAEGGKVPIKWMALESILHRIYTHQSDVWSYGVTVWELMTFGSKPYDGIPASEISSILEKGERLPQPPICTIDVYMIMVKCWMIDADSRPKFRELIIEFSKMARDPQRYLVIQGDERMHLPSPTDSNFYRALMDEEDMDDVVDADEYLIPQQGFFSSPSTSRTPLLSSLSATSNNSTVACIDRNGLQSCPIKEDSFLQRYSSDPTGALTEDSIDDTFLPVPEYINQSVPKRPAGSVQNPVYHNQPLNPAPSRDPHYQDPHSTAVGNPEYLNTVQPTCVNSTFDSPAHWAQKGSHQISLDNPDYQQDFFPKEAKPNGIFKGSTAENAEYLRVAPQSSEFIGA
T3 sequence (P00533 with tags, fused parts or gaps DUP771-773): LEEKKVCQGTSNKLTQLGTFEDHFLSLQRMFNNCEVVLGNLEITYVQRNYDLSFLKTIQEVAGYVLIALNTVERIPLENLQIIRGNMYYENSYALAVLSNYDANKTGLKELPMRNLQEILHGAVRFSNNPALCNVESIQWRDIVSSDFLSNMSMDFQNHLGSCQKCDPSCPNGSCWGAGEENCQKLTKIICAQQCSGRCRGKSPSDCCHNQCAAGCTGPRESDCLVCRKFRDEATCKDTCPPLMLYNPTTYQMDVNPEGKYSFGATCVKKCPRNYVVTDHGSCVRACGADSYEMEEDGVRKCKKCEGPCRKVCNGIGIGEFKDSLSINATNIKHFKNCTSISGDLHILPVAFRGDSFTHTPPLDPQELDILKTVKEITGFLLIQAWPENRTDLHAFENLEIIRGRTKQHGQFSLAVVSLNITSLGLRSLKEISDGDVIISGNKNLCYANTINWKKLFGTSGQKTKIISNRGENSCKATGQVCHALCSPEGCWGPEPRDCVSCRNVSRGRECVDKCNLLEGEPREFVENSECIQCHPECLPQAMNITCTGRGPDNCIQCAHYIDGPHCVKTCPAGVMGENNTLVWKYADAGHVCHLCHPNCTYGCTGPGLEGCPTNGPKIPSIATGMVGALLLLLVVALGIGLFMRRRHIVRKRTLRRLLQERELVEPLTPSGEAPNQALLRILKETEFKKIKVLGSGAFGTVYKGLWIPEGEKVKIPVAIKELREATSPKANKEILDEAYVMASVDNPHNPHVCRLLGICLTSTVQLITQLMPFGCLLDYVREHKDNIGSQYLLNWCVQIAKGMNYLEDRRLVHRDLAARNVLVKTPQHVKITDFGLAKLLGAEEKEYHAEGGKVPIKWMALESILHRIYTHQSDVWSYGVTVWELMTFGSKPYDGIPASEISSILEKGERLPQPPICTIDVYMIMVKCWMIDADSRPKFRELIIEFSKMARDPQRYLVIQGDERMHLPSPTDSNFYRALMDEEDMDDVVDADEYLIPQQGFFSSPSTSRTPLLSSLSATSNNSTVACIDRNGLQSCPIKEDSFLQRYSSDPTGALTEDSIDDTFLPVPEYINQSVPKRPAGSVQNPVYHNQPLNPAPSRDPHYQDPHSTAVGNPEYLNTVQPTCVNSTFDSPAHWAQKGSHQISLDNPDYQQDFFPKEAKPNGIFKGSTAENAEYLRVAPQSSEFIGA
T6 sequence (P04626 23-1255 S310F): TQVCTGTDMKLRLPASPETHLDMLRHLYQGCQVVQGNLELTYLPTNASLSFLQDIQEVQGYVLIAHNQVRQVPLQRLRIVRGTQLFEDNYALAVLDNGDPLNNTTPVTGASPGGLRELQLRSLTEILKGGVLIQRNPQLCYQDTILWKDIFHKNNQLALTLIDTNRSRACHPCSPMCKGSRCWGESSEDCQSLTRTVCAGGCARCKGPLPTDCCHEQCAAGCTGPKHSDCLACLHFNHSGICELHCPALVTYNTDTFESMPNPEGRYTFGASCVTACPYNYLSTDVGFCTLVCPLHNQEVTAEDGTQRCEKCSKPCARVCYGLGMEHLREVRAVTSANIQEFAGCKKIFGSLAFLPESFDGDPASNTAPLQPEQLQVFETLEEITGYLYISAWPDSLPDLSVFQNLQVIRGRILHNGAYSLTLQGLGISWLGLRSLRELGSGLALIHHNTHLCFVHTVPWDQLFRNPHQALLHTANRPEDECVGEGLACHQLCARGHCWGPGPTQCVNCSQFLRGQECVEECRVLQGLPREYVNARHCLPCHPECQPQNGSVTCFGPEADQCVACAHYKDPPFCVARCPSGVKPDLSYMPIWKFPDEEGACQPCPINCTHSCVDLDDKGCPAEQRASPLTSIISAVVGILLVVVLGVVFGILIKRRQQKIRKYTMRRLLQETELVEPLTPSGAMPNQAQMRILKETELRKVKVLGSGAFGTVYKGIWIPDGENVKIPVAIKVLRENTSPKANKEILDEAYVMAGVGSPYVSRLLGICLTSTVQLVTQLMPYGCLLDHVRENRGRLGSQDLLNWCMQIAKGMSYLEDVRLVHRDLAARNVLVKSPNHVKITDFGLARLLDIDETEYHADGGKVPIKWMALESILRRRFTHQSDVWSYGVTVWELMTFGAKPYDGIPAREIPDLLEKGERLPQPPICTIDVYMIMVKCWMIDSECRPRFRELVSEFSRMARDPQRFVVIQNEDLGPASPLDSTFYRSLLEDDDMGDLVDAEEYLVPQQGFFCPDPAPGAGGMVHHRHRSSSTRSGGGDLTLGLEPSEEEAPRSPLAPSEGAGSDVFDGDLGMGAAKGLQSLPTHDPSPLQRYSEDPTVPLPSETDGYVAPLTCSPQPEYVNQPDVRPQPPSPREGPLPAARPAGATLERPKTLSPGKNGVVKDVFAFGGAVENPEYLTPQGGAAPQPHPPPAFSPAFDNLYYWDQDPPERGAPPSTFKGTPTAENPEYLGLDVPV

SMILES	pIC50 (EGFR WT [1])	pIC50 (EGFR V3 [2])	pIC50 (EGFR NPH [3])	pIC50 (EGFR SVD [4])	pIC50 (HER2 WT [5]; [15])	pIC50 (HER2 WT [5]; [16])	pIC50 (HER2 S310F [6])	pIC50 (HER2 YVMA [7])	pIC50 (EGFR WT [8])	pIC50 (EGFR V3 [9])	pIC50 (EGFR NPH [10])	pIC50 (EGFR SVD [11])	pIC50 (HER2 WT [12])	pIC50 (HER2 S310F [13])	pIC50 (HER2 YVMA [14])
C=CC(=O)Nc1cc2c(Nc3cc(Cl)c(OCc4ccccn4)cc3F)ncnc2cc1OC1CCN(C)C1 (centres unmarked) [compound 60]	6.52 to 6.70	7.70 to 8.00	6.52 to 6.70	6.52 to 6.70	8.00 to 8.30	≥ 8.00	7.52 to 7.70	6.30 to 6.52	6.52 to 6.70	7.70 to 8.00	6.52 to 6.70	6.52 to 6.70	8.00 to 8.30	7.52 to 7.70	6.30 to 6.52
C=CC(=O)Nc1cc2c(Nc3ccc(OCc4ccccn4)c(Cl)c3)ncnc2cc1OC1CC(N(C)C)C1 (centres unmarked) [compound 62]	6.30 to 6.52	7.70 to 8.00	7.30 to 7.52	7.52 to 7.70	> 8.30	≥ 8.30	8.00 to 8.30	7.30 to 7.52	6.30 to 6.52	7.70 to 8.00	7.30 to 7.52	7.52 to 7.70	> 8.30	8.00 to 8.30	7.30 to 7.52
C=CC(=O)Nc1cc2c(Nc3ccc(Oc4ccccc4)cc3)ncnc2cc1OCCN1CCOCC1 [compound 63]	< 6.00	7.00 to 7.30	6.30 to 6.52	6.30 to 6.52	7.30 to 7.52	≥ 7.30	7.00 to 7.30	6.30 to 6.52	< 6.00	7.00 to 7.30	6.30 to 6.52	6.30 to 6.52	7.30 to 7.52	7.00 to 7.30	6.30 to 6.52
C=CC(=O)Nc1cc2c(Nc3ccc(OCc4ccccn4)c(Cl)c3)ncnc2cc1C#CC(C)(C)N(C)C [compound 66]	6.00 to 6.30	7.52 to 7.70	6.70 to 7.00	7.00 to 7.30	7.00 to 7.30	–	7.70 to 8.00	7.00 to 7.30	6.00 to 6.30	7.52 to 7.70	6.70 to 7.00	7.00 to 7.30	7.00 to 7.30	7.70 to 8.00	7.00 to 7.30
C=CC(=O)Nc1cc2c(Nc3ccc(Oc4ccc(C)nc4)c(C)c3)ncnc2cc1OC1CCN(C)C1 (centres unmarked) [compound 68]	6.00 to 6.30	6.70 to 7.00	6.00 to 6.30	6.00 to 6.30	7.70 to 8.00	≥ 7.70	7.30 to 7.52	6.30 to 6.52	6.00 to 6.30	6.70 to 7.00	6.00 to 6.30	6.00 to 6.30	7.70 to 8.00	7.30 to 7.52	6.30 to 6.52
C=CC(=O)Nc1cc2c(Nc3ccc(OCc4ccccn4)c(Cl)c3)ncnc2cc1N1CCC(N(C)C)CC1 [compound 78]	< 6.00	7.30 to 7.52	6.30 to 6.52	6.52 to 6.70	7.70 to 8.00	≥ 7.70	7.00 to 7.30	6.00 to 6.30	< 6.00	7.30 to 7.52	6.30 to 6.52	6.52 to 6.70	7.70 to 8.00	7.00 to 7.30	6.00 to 6.30
